Results on three compounds are retold here after patent US7179800B2 (priority 2002, dated 2007).

For data set [1], the target named is T1, CB1 receptor (Rattus norvegicus, UniProt P20272). The following applies: values from Hanu et al 1999; ligand [3H]HU-243; cited from earlier work.
Data set [2] concerns Male ICR mice. Description: Tail-flick antinociception (TF, % MPE) in mice. The format is in vivo, mouse. The following applies: for T.F. % effect at dose: Table 6; for TF percent effect (% MPE) at the highest dose: mice, i.v., 30 mg/kg. The procedure: (§1) Male ICR mice (25–32 g), obtained from Harlan (Dublin, Va.), were housed in groups of five. All animals were kept in a temperature-controlled (20–22° C.) environment with a 12-hour light-dark cycle (lights on at 7 a.m.). Separate mice were used for testing each drug dose in the in vivo behavioral procedures. Brain tissue for binding studies was obtained from male Sprague-Dawley rats (150–200 g) purchased from Harlan Laboratories (Dublin, Va.).
(§2) Measurement of spontaneous activity in mice occurred in standard activity chambers interfaced with a Digiscan Animal Activity Monitor (Omnitech Electronics, Inc., Columbus, Ohio). A standard tail-flick apparatus and a digital thermometer (Fisher Scientific, Pittsburgh, Pa.) were used to measure antinociception and rectal temperature, respectively
(§3) Resorcinols were synthesized in our labs (Organix, Inc., Woburn, Mass.) according to the procedure specified below and were suspended in a vehicle of absolute ethanol, Emulphor-620 (Rhone-Poulenc, Inc., Princeton, N.J.), and saline in a ratio of 1:1:18. Drugs were administered to the mice intravenously (i.v.) in the tail vein at a volume of 0.1 ml/10 g.
(§4) Prior to testing in the behavioral procedures, mice were acclimated to the experimental setting (ambient temperature 22–24° C.) overnight. Pre-injection control values were determined for rectal temperature and tail-flick latency (in sec). […] Tail-flick latency was measured at 20 min post-injection. Maximum latency of 10 sec was used. Antinociception was calculated as percent of maximum possible effect {% MPE=[(test−control latency)/(10-control)]×100}. Control latencies typically ranged from 1.5 to 4.0 sec. At 30 min post-injection, rectal temperature was measured This value was expressed as the difference between control temperature (before injection) and temperatures following drug administration (° C.). Different mice (n=5–6 per dose) were tested for each dose of each compound. Each mouse was tested in each of the 3 procedures.
(§5) Based on data obtained from numerous previous studies with cannabinoids, maximal cannabinoid effects in each procedure were estimated as follows: 90% inhibition of spontaneous activity, 100% MPE in the tail flick procedure, and −6° C. change in rectal temperature. ED50's were defined as the dose at which half maximal effect occurred. For drugs that produced one or more cannabinoid effect, ED50's were calculated separately using least-squares linear regression on the linear part of the dose-effect curve for each measure in the mouse tetrad, plotted against log10 transformation of the dose. For the purposes of potency comparison, potencies were expressed as μmol/kg.

The next data set concerns the target T2, CB2 receptor (Homo sapiens, UniProt P34972).
T2 construct: expressed in transfected cells; host or cells: CHO cells, G418-selected transfected line
Description: CB2 binding procedure: displacement of [3H]CP-55,940 from membranes of transfected CHO cells. The following applies: for Ki: [3H]CP-55,940, transfected CHO cell membranes. Here is the method: Membranes for CB2 binding were obtained from CHO cells. The transfected cell line was maintained in Dublecco's Modified Eagle Medium (Gibco BRL, Grand Island, N.Y.) with 10% fetal clone II (HyClone Laboratories, Inc., Logan, Utah) plus 0.3 to 0.5 mg/ml G418 (to maintain selective pressure) under 5% CO2 at 37% C. Cells were harvested with 1 mM EDTA in phosphate-buffered saline and were centrifuged at 1000×g for 5 min at 4% C. The supernatant was saved and the P1 pellet was resuspended in centrifugation buffer. Homogenization and centrifugation were repeated twice and the combined supernatant fractions were centrifuged at 40,000×g for 30 min at 4% C. The P2 pellet was resuspended in centrifugation buffer 2 (Tris HCl, 50 mM; EDTA, 1 mM; and MgCl2, 3 mM, pH 7.4) to a protein concentration of approximately 2 mg/ml. Protein concentrations were determined by the method of Bradford (1976) using Bio-Rad Protein Assay (Bio-Rad, Richmond, Calif.) and BSA standards (fatty acid free, Sigma Chemical Co., St. Louis, Mo.). The membrane preparation was divided into amounts convenient for binding assays and frozen rapidly in dry ice and stored at −80% C.
Binding was initiated by the addition of 50 μg of quickly thawed P2 membranes to test tubes containing [^3H]CP-55,940 (final reaction concentration 0.5 nM), an appropriate concentration of unlabeled CP-55,940 or test drug, and sufficient quantity of assay buffer (50 mM Tris-HCl, 1 mM EDTA, 3 mM MgCl2, 5 mg/ml bovine serum albumin, pH 7.4) to bring the total incubation volume to 0.5 ml. Concentration of [^3H]CP-55,940 in saturation studies ranged from 50 to 10,000 pM. Nonspecific binding was determined by the addition of 1 μM unlabeled CP-55,940. CP-55,940 and all cannabinoid analogs were prepared by suspension in assay buffer from a 1 mg/ml ethanolic stock without evaporation of the ethanol (final concentration of no more than 0.4%). In competition studies, analog concentrations ranged from 0.1 nM to 10 μM. After incubation at 30% C for 1 hr, binding was terminated by the addition of 2 ml of ice-cold wash buffer (50 mM Tris-HCl and 1 mg/ml BSA) and vacuum filtration through pre-treated filters in a 12-well sampling manifold (Millipore, Bedford, Mass.). Reaction vessels were washed once with 2 ml of ice-cold wash buffer. Filters were placed into 7-ml plastic scintillation vials (RPI Corp., Mount Prospect, Ill.) with 4 ml of Budget-Solve (RPI Corp.). After shaking for 30 min, the radioactivity present was determined by liquid scintillation spectrometry. Three reaction vessels were used for each drug concentration in each assay. The results represent the combined data of three independent experiments. All assays were performed in siliconized test tubes, which were prepared by air drying (12 hr) inverted borosilicate tubes after two rinses with a 0.1% solution of AquaSil (Pierce, Rockford, Ill.). The GF/C glass-fiber filters (2.4 cm, Baxter, McGaw Park, Ill.) were pre-treated in a 0.1% solution of pH 7.4 polyethylenimine (Sigma Chemical Co.) for at least 6 hr.
(§6) In addition, multiple linear regression was used to calculate the overall degree of relationship between CB1 binding affinity and potency in the mouse measures for all active cannabinoids. […] Ki values for CB1 and CB2 binding were obtained from Scatchard displacement analysis as determined via EBDA program of the KELL software package (Biosoft, Milltown, N.J.).

Data set [3] has as its target T1, CB1 receptor. As to the kind of experiment: CB1 binding procedure: displacement of [3H]CP 55,940 from rat whole-brain P2 membranes. The arrangement: whole brain was homogenized and centrifuged; from tissue; host or cells: rat whole brain, P2 membrane fraction. The following applies: for Ki: [3H]CP 55,940, rat brain membranes. The procedure:
as §1
The methods used for tissue preparation and binding have been described previously (Compton et al., 1993) and are similar to those described by Devane et al. (1988). All assays, as described briefly below, were performed in triplicate, and the results represent the combined data from three to six individual experiments.
Following decapitation and rapid removal of the brain, whole brain was homogenized and centrifuged. The resulting pellet was termed P1. The supernatant was saved and combined with the two subsequent supernatants obtained from washing of the P1 pellet. The combined supernatant fractions were centrifuged, resulting in the P2 pellet. After further incubation and centrifuging, this pellet was resuspended in assay buffer to a protein concentration of approximately 2 mg/ml. The membrane preparation was quickly frozen in a bath solution of dry ice and 2-methylbutane (Sigma Chemical Co., St. Louis, Mo.), then stored at −80° C. for no more than 2 weeks. Prior to performing a binding assay an aliquot of frozen membrane was rapidly thawed and protein values determined by the method of Bradford (1976).
Binding was initiated by the addition of 150 μg of P2 membrane to test tubes containing 1 nM of [^3H] CP 55,940 (79 Ci/mmol) and a sufficient quantity of buffer to bring the total incubation volume to 1 ml. Nonspecific binding was determined by the addition of 1 μM unlabeled CP 55,940. Following incubation at 30° C. for 1 hr, binding was terminated by addition of ice cold buffer and vacuum filtration through pretreated filters in a 12-well sampling manifold (Millipore, Bedford, Mass.). After washing, filters were placed into plastic scintillation vials (Packard, Downer Grove, Ill.) and shaken. The quantity of radioactivity present was determined by liquid scintillation spectrometry.
as §6

The subject of data set [4] is Male ICR mice. Description: Lethality noted in the mouse behavioral procedures. Type of data set: in vivo. The following applies: Table 6; @ 30 (mg/kg). The procedure: as §3, §4
The subject of data set [5] is Male ICR mice. Description: Change in rectal temperature (RT) in mice. The following applies: for RT effect at the highest dose (change in rectal temperature): mice, i.v., 30 mg/kg. Type of data set: in vivo, mouse. The procedure: as §1, §2, §3, §4, §5
Data set [6] deals with Male ICR mice. Description: Suppression of spontaneous activity (SA) in mice. Type of data set: in vivo, mouse. The following applies: for SA percent effect at the highest dose: mice, i.v., 30 mg/kg, % inhibition of activity of vehicle group. The procedure:
as §1, §2, §3, §4, §5

Setting [7] is: relative to the comparator analog.

Where two headings read alike, the source gives them in different places. Where only a bound is given, the exact number is not on record here.

T2 sequence (P34972 whole entry): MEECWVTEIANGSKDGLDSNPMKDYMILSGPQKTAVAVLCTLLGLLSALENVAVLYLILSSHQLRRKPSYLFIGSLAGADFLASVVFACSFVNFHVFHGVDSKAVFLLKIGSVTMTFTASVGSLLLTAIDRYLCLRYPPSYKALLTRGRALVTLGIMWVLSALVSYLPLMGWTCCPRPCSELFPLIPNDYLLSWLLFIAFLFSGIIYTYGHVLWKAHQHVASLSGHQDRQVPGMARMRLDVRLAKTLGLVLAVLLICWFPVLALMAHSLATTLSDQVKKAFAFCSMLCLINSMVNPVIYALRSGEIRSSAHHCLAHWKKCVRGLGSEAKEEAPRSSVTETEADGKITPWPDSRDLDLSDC
T1 sequence (P20272 whole entry): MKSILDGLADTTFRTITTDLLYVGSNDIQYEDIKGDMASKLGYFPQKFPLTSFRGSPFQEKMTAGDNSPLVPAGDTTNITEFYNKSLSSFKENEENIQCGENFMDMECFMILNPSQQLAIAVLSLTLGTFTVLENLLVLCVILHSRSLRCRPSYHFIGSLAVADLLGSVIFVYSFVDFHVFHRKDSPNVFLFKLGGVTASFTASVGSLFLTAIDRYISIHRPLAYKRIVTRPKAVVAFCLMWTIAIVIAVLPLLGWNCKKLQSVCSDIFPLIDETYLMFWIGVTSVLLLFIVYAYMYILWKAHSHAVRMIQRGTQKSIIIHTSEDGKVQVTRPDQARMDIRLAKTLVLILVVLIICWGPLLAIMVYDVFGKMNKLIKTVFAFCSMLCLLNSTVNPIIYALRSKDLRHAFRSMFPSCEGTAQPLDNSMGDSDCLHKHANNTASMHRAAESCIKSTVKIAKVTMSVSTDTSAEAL

`CCCCCCC(C)(C)c1cc(OC)c([C@@H]2C=C(CO)[C@@H]3C[C@H]2C3(C)C)c(OC)c1` [HU-308]: the inhibition constant Ki on CB1 receptor [1] was over 10000 nM.

On to `CCCCCCC(C)(C)c1cc(O)c(C2CCN(C)CC2)c(O)c1` [O-1662, 2-(1-Methylpiperidin-4-yl)-5-(1′,1′-dimethylheptyl)-re-sorcinol], for which the “T.F. % effect at dose” value in the data set on Male ICR mice [2] (@ 10 (mg/kg)) is listed as 7 @ 10%. Moreover, the “TF percent effect (% MPE) at the highest dose” value with Male ICR mice [2] is given as 30%(30). Moreover, the Ki at CB2 receptor (means ± SEM, read-out: Ki (nM) CB2) was 5420 ± 1100 nM; at CB1 receptor [3] (means ± SEM, read-out: Ki (nM) CB1), over 10000 nM. For the same compound, the Lethality at dose entry with Male ICR mice [4] was “Lethal”. Moreover, the “R.T. effect at dose” value with Male ICR mice [5] (Table 6, @ 10 (mg/kg)) was found to be 1 °C. Also, the “RT effect at the highest dose (change in rectal temperature)” value in the data set with Male ICR mice [5] is −3(30) °C. Moreover, in the data set on Male ICR mice [6] (Table 6, stimulation, @ 10 (mg/kg)), the “S.A % effect at dose, stim.” value is recorded as 77% stim. For the same compound, the “SA percent effect at the highest dose” value in the data set with Male ICR mice [6] is given as 87%(30).

Regarding `CCCCCCC(C)(C)c1cc(O)c(C2CCC(c3ccccc3)CC2)c(O)c1` (centres unmarked) [O-1663, 2-(4-Phenylcyclohexyl)-5-(1′,1′-dimethylheptyl)-resorcinol], the “T.F. % effect at dose” value in the data set on Male ICR mice [2] (@ 30 (mg/kg)) was 7% @ 30. Further, in the data set with Male ICR mice [2], the “TF percent effect (% MPE) at the highest dose” value is 7%(30). Also, the “CB1/CB2 (ratio of Ki)” value on CB2 receptor (CB1 Ki divided by CB2 Ki) came out at 16. Also, the Ki worked out at 9 ± 2 nM on CB2 receptor (Ki (nM) CB2, means ± SEM) and 144 ± 22 nM at CB1 receptor [3] (Ki (nM) CB1, means ± SEM). Moreover, the “fold decrease in CB2 affinity” value on CB2 receptor (setting [7]) stood at 2 fold. At CB1 receptor [3] (setting [7]), the “fold decrease in CB1 affinity” value is 3 fold. Also, the “RT effect at the highest dose (change in rectal temperature)” value in the data set with Male ICR mice [5] was −2.2(30) °C. Besides, the “S.A % effect at dose” value in the data set with Male ICR mice [6] (Table 6, @ 30 (mg/kg)) is reported as 32% @ 30. In the data set with Male ICR mice [6], the “SA percent effect at the highest dose” value is 32%(30).
